{"source": "patent US20240216370A1", "about": "“TREATMENT OF CORNEAL VASCULARISATION” (VESTLANDETS INNOVASJONSSELSKAP AS, priority 2020, published 2024)", "key": {"OPDKD patient": {"test_system": "OPDKD patient", "experiment": "Oral (systemic) imatinib treatment of an OPDKD patient, effect in the eye", "type": "in vivo, human", "conditions": "systemic imatinib for almost one year, 6 months at maximal recommended dose of 800 mg"}, "PDGFRβ (N666Y)": {"target": "T1, PDGFRβ (N666Y) (Homo sapiens, UniProt P09619, N666Y)", "T1 construct": "Fibroblasts from affected individuals and healthy controls were obtained; endogenous in cells; host or cells: fibroblasts from OPDKD patients", "T1 sequence (P09619 33-1106 N666Y)": "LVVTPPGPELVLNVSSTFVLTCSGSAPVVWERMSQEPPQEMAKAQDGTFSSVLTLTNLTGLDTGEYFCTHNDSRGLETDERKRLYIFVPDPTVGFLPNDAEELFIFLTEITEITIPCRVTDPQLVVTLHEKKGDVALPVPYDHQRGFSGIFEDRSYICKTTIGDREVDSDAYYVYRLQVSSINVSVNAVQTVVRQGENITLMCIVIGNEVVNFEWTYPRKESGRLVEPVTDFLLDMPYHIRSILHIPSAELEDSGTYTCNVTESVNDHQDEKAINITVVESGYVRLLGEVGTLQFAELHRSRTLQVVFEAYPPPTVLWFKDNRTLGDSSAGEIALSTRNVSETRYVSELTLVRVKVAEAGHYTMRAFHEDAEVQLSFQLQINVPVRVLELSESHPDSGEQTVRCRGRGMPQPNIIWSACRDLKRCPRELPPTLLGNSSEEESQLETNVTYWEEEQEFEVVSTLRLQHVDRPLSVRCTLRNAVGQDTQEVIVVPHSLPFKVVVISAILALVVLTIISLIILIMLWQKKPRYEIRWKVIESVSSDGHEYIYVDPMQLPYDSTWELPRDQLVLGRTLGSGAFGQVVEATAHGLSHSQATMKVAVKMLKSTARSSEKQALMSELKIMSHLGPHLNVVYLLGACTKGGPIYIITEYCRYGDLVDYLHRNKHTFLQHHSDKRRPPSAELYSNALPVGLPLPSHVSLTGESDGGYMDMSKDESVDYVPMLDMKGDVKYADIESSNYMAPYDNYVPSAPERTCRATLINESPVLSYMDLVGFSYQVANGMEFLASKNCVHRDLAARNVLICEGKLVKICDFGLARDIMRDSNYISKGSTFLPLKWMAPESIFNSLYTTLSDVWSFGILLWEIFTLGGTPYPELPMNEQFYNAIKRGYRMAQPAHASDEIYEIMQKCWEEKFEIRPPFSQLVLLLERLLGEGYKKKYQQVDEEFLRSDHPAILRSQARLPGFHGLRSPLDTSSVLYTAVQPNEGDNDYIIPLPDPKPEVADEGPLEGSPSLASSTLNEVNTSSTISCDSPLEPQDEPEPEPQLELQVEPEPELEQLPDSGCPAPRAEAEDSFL", "experiment": "ELISA analysis of phosphorylated PDGFRβ in OPDKD patient fibroblasts", "type": "cell-based", "experimental": "Fibroblasts from affected individuals and healthy controls were obtained. Transgenic HeLa cells were transduced with a murine retroviral vector containing the PDGFRβ (NM_002609.3) c.wt, c. 1996A>T (OPDKD) and c.1997A>G (a different activating mutation associated with severe Penttinen syndrome) variants.\nIn OPDKD, the affected parts of the body (corneas and skin, particular fingers and toes) are all exposed to variable temperatures. ^8 At a typical room temperature (20-22° C.) corneal temperatures lie around 32-34° and fall to around 30° C. as air temperatures reaches 0° C. ^9 We studied the effect of this physiological temperature difference on PDGFRβ auto-phosphorylation and signaling in OPDKD. Cells were either kept at 37° ° C. or incubated overnight at 32° C. […] For ELISA analysis of phosphorylated PDGFRβ, a DuoSet® IC Phospho-PDGFRβ kit (R&D systems) was used. Cell lysates were also subjected to immunoblot analysis with primary antibodies against downstream signaling partners: phospho-Ser473-AKT, phospho-Thr308-AKT, phospho-Tyr70-STAT1, STAT1, phospho-Tyr783-PLCγ1, PLCγ1, phospho-Thr202/Tyr204-MAPK3/ERK1 and MAPK3/ERK1 (all from Cell Signaling Technology). […]"}, "AKT": {"test_system": "AKT", "experiment": "Immunoblot of downstream signaling partner AKT (phospho-Ser473, phospho-Thr308) in patient fibroblasts", "type": "cell-based, human", "conditions": "0.1 μM imatinib", "method": "Cells were either kept at 37° ° C. or incubated overnight at 32° C. Cells were then left untreated or treated with 0.1 μM imatinib (STI571, Selleckchem) for 6 hours. For ELISA analysis of phosphorylated PDGFRβ, a DuoSet® IC Phospho-PDGFRβ kit (R&D systems) was used. Cell lysates were also subjected to immunoblot analysis with primary antibodies against downstream signaling partners: phospho-Ser473-AKT, phospho-Thr308-AKT, phospho-[MUT]-STAT1, STAT1, phospho-[MUT]-PLCγ1, PLCγ1, phospho-Thr202/Tyr204-MAPK3/ERK1 and MAPK3/ERK1 (all from Cell Signaling Technology)."}}, "note": "“Also recorded” adds a separate entry of the source."}
{"smiles": "Cc1ccc(NC(=O)c2ccc(CN3CCN(C)CC3)cc2)cc1Nc1nccc(-c2cccnc2)n1", "note": "[imatinib]", "values": [{"measurement": "effect of the drug on the eye of an OPDKD patient", "setting": "OPDKD patient", "value": "no effect; also recorded: without effect"}, {"measurement": "sensitivity of OPDKD fibroblasts compared with Penttinen fibroblasts", "setting": "PDGFRβ (N666Y); OPDKD (N666Y) vs Penttinen (N666S) fibroblasts", "value": "less sensitive"}, {"measurement": "effect on levels of P-PDGFRβ and downstream proteins", "setting": "PDGFRβ (N666Y); OPDKD fibroblasts, imatinib, 6 hours", "value": "clear, dose dependent effect"}, {"measurement": "levels of phosphorylated PDGFRβ", "setting": "PDGFRβ (N666Y); patient fibroblasts, high doses of imatinib (1 μM)", "value": "normalization"}, {"measurement": "phosphorylation of Ser473 and Thr308 AKT", "setting": "AKT", "value": "Normalization"}]}
